From patent publication EP0381533A2, “Cyclic monophosphates of purine and pyrimidine acyclonucleosides” (Merck & Co., Inc., priority 1989, dated 1990)

Test system: Eisenhart Human Cytomegalovirus
Test: Human Cytomegalovirus (HCMV) Plaque Reduction Assay
Type: cell-based
Conditions: MRC-5 cells (human fetal lung); ~60 PFUs; plaques counted on day 6 post inoculation
Procedure: Activity against Human Cytomegalovirus is determined by employing the Human Cytomegalovirus (HCMV) Assay. Two tissue culture assays are available; Cell Protection and Plaque Reduction. Both assays utilize MRC-5 cells (human fetal lung) and Eisenhart Human Cytomegalovirus. The following is a description of the Cell Protection and Plaque Reduction Assays.
Eight-two fold dilutions are made of the compound to be tested. After the dilutions are made, 0.5 ml of each dilution is added to each of three decanted wells of MRC-5. Two wells are used to determine the antiviral activity of the compound to be tested and one well is used to determine toxicity. The MRC-5 plates are then decanted, and the wells are infected with 0.1 ml of Human Cytomegalovirus inoculum containing ∼60 PFUs. The plates are then adsorbed for 1 hour at 37°C/5% CO₂. After one hour the virus is removed from the wells and duplicate wells are refed with dilutions of the compound to be tested. The plates are then incubated at 37°C/5% CO₂. Plaques are counted microscopically on day 6 post inoculation.

SMILES | Plag Red
Nc1nc2c(ncn2COC2COP(=O)(O)OC2)c(=O)[nH]1 (stereo not drawn) [Sodium 9-[(2-hydroxy-1,3,2-dioxophosphorinan-5-yl)-oxymethyl]guanine P-oxide] | 0.19 µg/mL
Nc1nc2c(ncn2COC(CO)CO)c(=O)[nH]1 [2-amino-1,9-dihydro-9-((2-hydroxy-1-(hydroxymethyl)-ethoxy)methyl)-6H-Purin-6-one] | 0.78 µg/mL
Nc1ccn(COC2COP(=O)(O)OC2)c(=O)n1 (stereo not drawn) [Sodium 1-[(2-hydroxy-1,3,2-dioxophosphorinan-5-yl)-oxymethyl]cytosine P-oxide] | 25.00 µg/mL
